According to patent US9457033B2, “Steroid alkaloids and uses thereof as antimicrobial agents against electron transport-deficient microbes and as potentiators for antimicrobial agents against pathogenic bacteria” (priority 2011, dated 2016):
Values after ≈ are worked out from the molar mass of the structure shown. Where two headings read alike, the source gives them in different places.

Columns and labels:
[1] = tested on: S. epidermidis ATCC 12228; assay: MIC, microdilution, with or without tomatidine; conditions: for MIC: Staphylococcus epidermidis
[2] = tested on: S. aureus ATCC 43300; assay: MIC, microdilution in CAMHB 24 h; assay type: cell-based, Staphylococcus aureus; conditions: ATCC 43300; for MIC: Staphylococcus aureus
[3] = tested on: S. haemolyticus sh022; assay: MIC, microdilution, with or without tomatidine; conditions: for MIC: Staphylococcus haemolyticus
[4] = tested on: S. aureus MA078038; assay: MIC, microdilution in CAMHB 24 h; assay type: cell-based, Staphylococcus aureus; conditions: for MIC: Staphylococcus aureus
[5] = tested on: S. aureus Sa220c; assay: MIC, microdilution in CAMHB 24 h; assay type: cell-based, Staphylococcus aureus; conditions: Sa220c; for MIC: Staphylococcus aureus
[6] = tested on: S. saprophyticus ATCC 15305; assay: MIC, microdilution, with or without tomatidine; conditions: for MIC: Staphylococcus saprophyticus
[7] = tested on: S. hominis sho23; assay: MIC, microdilution, with or without tomatidine; conditions: for MIC: Staphylococcus hominis
[8] = tested on: S. aureus CF07-L; assay: MIC, microdilution in CAMHB 24 h; assay type: cell-based, Staphylococcus aureus; conditions: CF07-L; for MIC: Staphylococcus aureus, CF07L
[9] = tested on: S. aureus CF4B-L; assay: MIC, microdilution in CAMHB 24 h; assay type: cell-based, Staphylococcus aureus; conditions: CF4B-L; for MIC: Staphylococcus aureus, CF4BL
[10] = tested on: S. hominis ssp008c; assay: MIC, microdilution, with or without tomatidine; conditions: for MIC: Staphylococcus hominis, SSP008C
[11] = tested on: all tested S. aureus strains; assay: Average potentiation of aminoglycoside MIC by tomatidine (FIGS. 6, 7); assay type: cell-based, Staphylococcus aureus; conditions: tomatidine at 8 μg/ml
[12] = tested on: S. epidermidis ATCC 35984; assay: MIC, microdilution, with or without tomatidine; conditions: for MIC: Staphylococcus epidermidis
[13] = tested on: S. haemolyticus sh032; assay: MIC, microdilution, with or without tomatidine; conditions: for MIC: Staphylococcus haemolyticus
[14] = ATCC 43300 / MRSA, Human (HA), MRSA, read-out: MIC
[15] = ATCC43300, 8 μg/ml of tomatidine, read-out: MIC +TO
[16] = ATCC43300, absence of tomatidine, read-out: MIC −TO
[17] = MA078038, 8 μg/ml of tomatidine
[18] = MA078038, aph(3′)-IIIa, 8 μg/ml of tomatidine, read-out: MIC +TO
[19] = MA078038, aph(3′)-IIIa, absence of tomatidine, read-out: MIC −TO
[20] = MA078038, Human (CA), MRSA, read-out: MIC
[21] = 8 μg/ml of tomatidine, read-out: MIC +TO
[22] = Human (SSTI), MRSA, read-out: MIC
[23] = absence of tomatidine, read-out: MIC −TO
[24] = Human (CF lungs), read-out: MIC

`NC[C@H]1O[C@H](O[C@H]2[C@H](O)[C@@H](O[C@H]3O[C@H](CO)[C@@H](O)[C@H](N)[C@H]3O)[C@H](N)C[C@@H]2N)[C@H](N)C[C@@H]1O` [Tobramycin, tobramycin] was tested. Which “Fold (−TO/+TO)” value ([1]; S. epidermidis ATCC 12228, 8 μg/ml of tomatidine) did it give?
Its value is 2 fold.

And the MIC ([1]; ATCC12228, read-out: MIC +TO)?
Its MIC is 0.06 µg/mL (≈ 0.128 µM).

And the MIC ([1]; ATCC12228, read-out: MIC −TO)?
Its MIC is 0.12 µg/mL (≈ 0.257 µM).

What about the “Fold (−TO/+TO)” value ([2]; 8 μg/ml of tomatidine) of the same compound?
The value was 4-8 fold.

And the MIC [2, 14]?
The MIC was 512 to 1020 µg/mL (≈ 1100 to 2190 µM).

And the MIC [2, 15]?
Its MIC is 128 µg/mL (≈ 274 µM).

And the MIC [2, 16]?
The MIC was 512 to 1020 µg/mL (≈ 1100 to 2190 µM).

What about the “Fold (−TO/+TO)” value ([3]; S. haemolyticus sh022, 8 μg/ml of tomatidine) of the same compound?
Its value is 8 fold.

What about the MIC ([3]; SH022, read-out: MIC +TO) of the same compound?
Its MIC is 4 µg/mL (≈ 8.56 µM).

And the MIC ([3]; SH022, read-out: MIC −TO)?
Its MIC is 32 µg/mL (≈ 68.4 µM).

What about the “Fold (−TO/+TO)” value [4, 17] of the same compound?
The value was 4-8 fold.

What about the MIC [4, 18] of the same compound?
The MIC was 0.06 to 0.12 µg/mL (≈ 0.128 to 0.257 µM).

And the MIC [4, 19]?
Its MIC is 0.5 µg/mL (≈ 1.07 µM).

And the MIC [4, 20]?
Its MIC is 0.5 µg/mL (≈ 1.07 µM).

What about the “Fold (−TO/+TO)” value ([5]; 8 μg/ml of tomatidine) of the same compound?
Its value is 4-16 fold.

What about the MIC [5, 21] of the same compound?
The MIC was 0.06 to 0.12 µg/mL (≈ 0.128 to 0.257 µM).

And the MIC [5, 22]?
The MIC was 0.5 to 1 µg/mL (≈ 1.07 to 2.14 µM).

And the MIC [5, 23]?
Its MIC is 0.5 to 1 µg/mL (≈ 1.07 to 2.14 µM).

And the “Fold (−TO/+TO)” value ([6]; S. saprophyticus ATCC 15305, 8 μg/ml of tomatidine)?
Its value is 8 fold.

What about the MIC ([6]; ATCC15305, read-out: MIC +TO) of the same compound?
Its MIC is 0.016 µg/mL (≈ 0.0342 µM).

What about the MIC ([6]; ATCC15305, read-out: MIC −TO) of the same compound?
The MIC was 0.12 µg/mL (≈ 0.257 µM).

And the “Fold (−TO/+TO)” value ([7]; S. hominis sho23, 8 μg/ml of tomatidine)?
Its value is 4 fold.

And the MIC ([7]; SHO23, read-out: MIC +TO)?
The MIC was 1 µg/mL (≈ 2.14 µM).

What about the MIC ([7]; SHO23, read-out: MIC −TO) of the same compound?
Its MIC is 4 µg/mL (≈ 8.56 µM).

And the “Fold (−TO/+TO)” value ([8]; 8 μg/ml of tomatidine)?
The value was 4-8 fold.

And the MIC [8, 21]?
Its MIC is 0.06 to 0.12 µg/mL (≈ 0.128 to 0.257 µM).

What about the MIC [8, 24] of the same compound?
Its MIC is 0.5 to 1 µg/mL (≈ 1.07 to 2.14 µM).

What about the MIC [8, 23] of the same compound?
The MIC was 0.5 to 1 µg/mL (≈ 1.07 to 2.14 µM).

What about the “Fold (−TO/+TO)” value ([9]; 8 μg/ml of tomatidine) of the same compound?
The value was 4-16 fold.

And the MIC [9, 21]?
Its MIC is 0.06 to 0.12 µg/mL (≈ 0.128 to 0.257 µM).

And the MIC [9, 24]?
The MIC was 0.5 to 1 µg/mL (≈ 1.07 to 2.14 µM).

What about the MIC [9, 23] of the same compound?
The MIC was 0.5 to 1 µg/mL (≈ 1.07 to 2.14 µM).

What about the “Fold (−TO/+TO)” value ([10]; S. hominis ssp008c, 8 μg/ml of tomatidine) of the same compound?
The value was 4 fold.

What about the MIC ([10]; read-out: MIC +TO) of the same compound?
Its MIC is 8 µg/mL (≈ 17.1 µM).

And the MIC ([10]; read-out: MIC −TO)?
The MIC was 32 µg/mL (≈ 68.4 µM).

And the “average increase of antibacterial activity” value [11]?
Its value is 8±3 fold.

What about the “Fold (−TO/+TO)” value ([12]; S. epidermidis ATCC 35984, 8 μg/ml of tomatidine) of the same compound?
The value was 8 fold.

And the MIC ([12]; ATCC35984, read-out: MIC +TO)?
The MIC was 2 µg/mL (≈ 4.28 µM).

What about the MIC ([12]; ATCC35984, read-out: MIC −TO) of the same compound?
Its MIC is 16 µg/mL (≈ 34.2 µM).

What about the “Fold (−TO/+TO)” value ([13]; S. haemolyticus sh032, 8 μg/ml of tomatidine) of the same compound?
Its value is 16 fold.

And the MIC ([13]; SH032, read-out: MIC +TO)?
The MIC was 2 µg/mL (≈ 4.28 µM).

What about the MIC ([13]; SH032, read-out: MIC −TO) of the same compound?
The MIC was 32 µg/mL (≈ 68.4 µM).

For `NC[C@H]1O[C@H](O[C@H]2[C@H](O)[C@@H](O[C@H]3O[C@H](CO)[C@@H](O)[C@H](N)[C@H]3O)[C@H](N)C[C@@H]2N)[C@H](O)[C@@H](O)[C@@H]1O` [Kanamycin, kanamycin], which “Fold (−TO/+TO)” value ([2]; 8 μg/ml of tomatidine) is on record?
Its value is 2-4 fold.

And the MIC [2, 14]?
Its MIC is 512 to 1020 µg/mL (≈ 1060 to 2110 µM).

What about the MIC [2, 15] of the same compound?
The MIC was 256 µg/mL (≈ 528 µM).

And the MIC [2, 16]?
The MIC was 512 to 1020 µg/mL (≈ 1060 to 2110 µM).

What about the “Fold (−TO/+TO)” value [4, 17] of the same compound?
Its value is greater than 1 fold.

And the MIC [4, 18]?
Its MIC is 1020 µg/mL (≈ 2110 µM).

What about the MIC [4, 19] of the same compound?
Its MIC is greater than 1020 µg/mL.

What about the MIC [4, 20] of the same compound?
Its MIC is greater than 1020 µg/mL.

And the “Fold (−TO/+TO)” value ([5]; 8 μg/ml of tomatidine)?
The value was 8 fold.

And the MIC [5, 21]?
Its MIC is 0.5 µg/mL (≈ 1.03 µM).

What about the MIC [5, 22] of the same compound?
The MIC was 4 µg/mL (≈ 8.26 µM).

And the MIC [5, 23]?
The MIC was 4 µg/mL (≈ 8.26 µM).

What about the “Fold (−TO/+TO)” value ([8]; 8 μg/ml of tomatidine) of the same compound?
The value was 4-8 fold.

And the MIC [8, 21]?
Its MIC is 0.5 to 1 µg/mL (≈ 1.03 to 2.06 µM).

And the MIC [8, 24]?
Its MIC is 4 µg/mL (≈ 8.26 µM).

And the MIC [8, 23]?
The MIC was 4 µg/mL (≈ 8.26 µM).

What about the “Fold (−TO/+TO)” value ([9]; 8 μg/ml of tomatidine) of the same compound?
Its value is 8 fold.

And the MIC [9, 21]?
Its MIC is 0.5 µg/mL (≈ 1.03 µM).

And the MIC [9, 24]?
The MIC was 4 µg/mL (≈ 8.26 µM).

What about the MIC [9, 23] of the same compound?
Its MIC is 4 µg/mL (≈ 8.26 µM).
